Measured values taken from patent US9174994B2, “Enhanced treatment regimens using mTor inhibitors” (INTELLIKINE LLC, priority 2011, dated 2015).

Assay: Phase I clinical trial: treatment-emergent adverse events (patients, n (%)), dose limiting toxicity, MTD
Assay type: in vivo
[1] = Table 8: Total QD Dosing (N = 25)
[2] = Table 8: Total QDx3d QW (N = 14)

Procedure: Safety, maximum tolerated dose (MTD), pharmacokinetics (PK) and preliminary antitumor activity were evaluated.
Pharmacodynamic (PD) endpoints were evaluated in surrogate (peripheral blood cells [PBCs], skin) and tumor tissues for the phosphorylation of TORC1-dependent markers (4EBP1/S6), and TORC2-dependent markers (AKT/PRAS40).

CC(C)n1nc(-c2ccc3oc(N)nc3c2)c2c(N)ncnc21 [compound A]
Eye infection (Table 8: Total (N = 60)): 1 (2%)
Fatigue (Table 8: Total (N = 60)): 1 (2%)
Gastritis (Table 8: Total (N = 60)): 1 (2%)
Gravitational oedema (Table 8: Total (N = 60)): 1 (2%)
Headache (Table 8: Total (N = 60)): 1 (2%)
Hyperbilirubinaemia (Table 8: Total (N = 60)): 1 (2%)
Hypertransaminasaemia (Table 8: Total (N = 60)): 1 (2%)
Hypertriglyceridaemia (Table 8: Total (N = 60)): 1 (2%)
Hypocalcaemia (Table 8: Total (N = 60)): 1 (2%)
Hypomagnesaemia (Table 8: Total (N = 60)): 1 (2%)
Hypotension (Table 8: Total (N = 60)): 1 (2%)
Insomnia (Table 8: Total (N = 60)): 1 (2%)
Low fever (Table 8: Total (N = 60)): 1 (2%)
Malaise (Table 8: Total (N = 60)): 1 (2%)
Nausea (Table 8: Total (N = 60)): 1 (2%)
Oral discomfort (Table 8: Total (N = 60)): 1 (2%)
Orthostatic hypotension (Table 8: Total (N = 60)): 1 (2%)
Palmar-plantar erythrodysaesthesia syndrome (Table 8: Total (N = 60)): 1 (2%)
Panniculitis (Table 8: Total (N = 60)): 1 (2%)
Platelet count decreased (Table 8: Total (N = 60)): 1 (2%)
Polyuria (Table 8: Total (N = 60)): 1 (2%)
Pyrexia (Table 8: Total (N = 60)): 1 (2%)
Rash (Table 8: Total (N = 60)): 1 (2%)
Rash macular (Table 8: Total (N = 60)): 1 (2%)
Skin discolouration (Table 8: Total (N = 60)): 1 (2%)
Skin exfoliation (Table 8: Total (N = 60)): 1 (2%)
Urinary tract infection (Table 8: Total (N = 60)): 1 (2%)
Urine tract infection (Table 8: Total (N = 60)): 1 (2%)
Vomiting (Table 8: Total (N = 60)): 1 (2%)
WEAKNESS (Table 8: Total (N = 60)): 1 (2%)
Weight decreased (Table 8: Total (N = 60)): 1 (2%)
Catheter site inflammation [1]: 0 (0%)
Catheter site pain [1]: 0 (0%)
Coagulopathy [1]: 1 (4%)
Confusional state [1]: 1 (4%)
Cough [1]: 1 (4%)
DIARRHEA [1]: 0 (0%)
Dizziness [1]: 1 (4%)
Dyspnoea exertional [1]: 1 (4%)
Eye infection [1]: 1 (4%)
Fatigue [1]: 0 (0%)
Gastritis [1]: 1 (4%)
Gravitational oedema [1]: 1 (4%)
Headache [1]: 0 (0%)
Hyperbilirubinaemia [1]: 0 (0%)
Hypertransaminasaemia [1]: 0 (0%)
Hypertriglyceridaemia [1]: 0 (0%)
Hypocalcaemia [1]: 1 (4%)
Hypomagnesaemia [1]: 0 (0%)
Hypotension [1]: 0 (0%)
Insomnia [1]: 1 (4%)
Low fever [1]: 0 (0%)
Malaise [1]: 0 (0%)
Nausea [1]: 0 (0%)
Oral discomfort [1]: 0 (0%)
Orthostatic hypotension [1]: 1 (4%)
Palmar-plantar erythrodysaesthesia syndrome [1]: 0 (0%)
Panniculitis [1]: 1 (4%)
Platelet count decreased [1]: 0 (0%)
Polyuria [1]: 1 (4%)
Pyrexia [1]: 0 (0%)
Rash [1]: 0 (0%)
Rash macular [1]: 0 (0%)
Skin discolouration [1]: 1 (4%)
Skin exfoliation [1]: 1 (4%)
Urinary tract infection [1]: 0 (0%)
Urine tract infection [1]: 0 (0%)
Vomiting [1]: 0 (0%)
WEAKNESS [1]: 0 (0%)
Weight decreased [1]: 1 (4%)
Catheter site inflammation [2]: 1 (7%)
Catheter site pain [2]: 1 (7%)
Coagulopathy [2]: 0 (0%)
Confusional state [2]: 0 (0%)
Cough [2]: 0 (0%)
DIARRHEA [2]: 0 (0%)
Dizziness [2]: 0 (0%)
Dyspnoea exertional [2]: 0 (0%)
Eye infection [2]: 0 (0%)
Fatigue [2]: 1 (7%)
Gastritis [2]: 0 (0%)
Gravitational oedema [2]: 0 (0%)
Headache [2]: 1 (7%)
Hyperbilirubinaemia [2]: 1 (7%)
Hypertransaminasaemia [2]: 1 (7%)
Hypertriglyceridaemia [2]: 1 (7%)
Hypocalcaemia [2]: 0 (0%)
Hypomagnesaemia [2]: 1 (7%)
Hypotension [2]: 1 (7%)
Insomnia [2]: 0 (0%)
Low fever [2]: 1 (7%)
Malaise [2]: 0 (0%)
Nausea [2]: 0 (0%)
Oral discomfort [2]: 0 (0%)
Orthostatic hypotension [2]: 0 (0%)
Palmar-plantar erythrodysaesthesia syndrome [2]: 1 (7%)
Panniculitis [2]: 0 (0%)
Platelet count decreased [2]: 1 (7%)
Polyuria [2]: 0 (0%)
Pyrexia [2]: 1 (7%)
Rash [2]: 0 (0%)
Rash macular [2]: 1 (7%)
Skin discolouration [2]: 0 (0%)
Skin exfoliation [2]: 0 (0%)
Urinary tract infection [2]: 1 (7%)
Urine tract infection [2]: 0 (0%)
Vomiting [2]: 0 (0%)
WEAKNESS [2]: 0 (0%)
